One compound from article PMC9948168, “Vanillin-Based Indolin-2-one Derivative Bearing a Pyridyl Moiety as a Promising Anti-Breast Cancer Agent via Anti-Estrogenic Activity” (ACS Omega, 2023) can be followed below.

Several values for one entry are separate records, joined by “and”; a condition that tells them apart may be missing. Equal values may be shown once.

One series in a line: Solubility test by HPLC. It is filed as physicochemical. An excerpt:
Studying drug solubility is a crucial part of the pre-formulation study. It is an integral phase that every drug has been through in any development process to determine its bioavailability and the best excipients used during formulation. The solubility of compound 6j was detected using HPLC in methanol, ethanol, and acetonitrile. […] With such results, compound 6j requires the addition of a surfactant to increase its solubility, especially in water. Different types of surfactants could be used to study their effect on increasing solubility in future plans. We see that this compound has the potential to go through the formulation study. […] Accordingly, the active compound 6j was analyzed with SwissADME. The physicochemical properties of compound 6j, molecular weight (392.83 g/mol), fraction Csp3 (0.09), rotatable bonds (5), H-bond acceptors (4), H-bond donors (1), molar refractivity (112.41), and topological polar surface area (TPSA) (60.45 Å^2) were measured. For lipophilicity, log Po/w (XLOGP3) (3.93), log Po/w (WLOGP) (3.98), log Po/w (MLOGP) (2.66), log Po/w (SILICOS-IT) (5.03) and consensus It was measured as log Po/w (3.75). […] The drug-likeness status of 6j was detected as suitable according to Lipinski, Ghose, Veber, Egan, and Muegge’s limited rules.[44] […]

For the next series, the system named is ER-α. Description: In vitro ER-α inhibitory ELISA assay in MCF-7 cells. The settings on record: 1 μg/mL, 24 h. It is filed as cell-based, human. On the procedure: An in vitro ER-α inhibitory ELISA assay was performed using a Human ER-α/Estrogen Receptor ELISA Kit (Sandwich ELISA) (Lifespan Biosciences, Seattle, Washington, USA) as previously described.[64] The cells were plated at a density of 2000 cells/well in a 96-well plate. […] After 24 h, the pellets of the cells were collected by centrifugation. The cells were washed three times with PBS and then lysed by ultrasonication, and the supernatant was collected for testing. The wells were loaded with 100 μL of either standards or samples and incubated for 90 min at 37 °C. The wells were washed with 1× wash buffer for removing any unbound sample and 100 μL 1× biotinylated detection antibody was next put in and incubated for 1 h at 37 °C. The wells were rewashed with 1× wash buffer, and 100 μL 1× HRP conjugate was then added and incubated for 30 min at 37 °C. A third wash with 1× wash buffer was done and 90 μL of the TMB substrate was added. The TMB substrate reacted with the HRP enzyme, ensuring a color development, and the reaction was terminated using 50 μL of a stop solution. Finally, the optical density (OD) of the well was measured at a wavelength of 450 nm ± 2 nm. The OD of an unknown sample was calculated by correlation with a standard curve generated by standards with known concentrations.
(In general: In an ELISA, binding on a coated surface is turned into a signal by an enzyme label.)

With `COc1cc(C=C2C(=O)Nc3ccc(Cl)cc32)ccc1OCc1ccccn1` (mixture of isomers) [6j], the water solubility result in “Solubility test by HPLC” is given as “did not detect any water solubility”. Moreover, in the series with ER-α, the “ER-α pg/mL (mean ± SEM)” value is on record as 424.9 ± 17.2 pg/mL. Moreover, the “inhibition (%) of ER-α” value with ER-α (compared to control) was 62% and 62.4%.
